Assay results: patent publication US20230181602A1, “TREATMENT OF NON-ALCOHOLIC STEATOHEPATITIS (NASH)” (DURECT CORPORATION, priority 2020, published 2023)
Marks after values point to notes of the source that are not given here.

Tests used:
[1] = system: NASH patients with stage 1-3 fibrosis; assay: Phase 1b study in NASH patients, 4-week daily oral dosing: pharmacodynamic signals; assay type: in vivo, human; details: for Mean Non-HDL to Baseline / Mean TG to Baseline / Median Non-HDL to Baseline / Median TG to Baseline: day 28 after dosing
Description: (§1) A total of 63 patients completed the study with 21 patients per dose group (completion of MRI-PDFF measurement). 25HC3 S sodium was orally administered daily at 50 mg, 150 mg, or 600 mg (300 mg BID). […] Subjects provided written informed consent to participate in the study • 2. Males or females subjects 18 years or older, at the time of signing informed consent • 3. BMI 20-45 kg/m^2 • 4. […] Value of Fibroscan® ≥7 kPa • OR • b. MRE ≥2.75 kPa • *Clinical diagnosis of NASH was defined in this clinical trial as the existence of one or more of the following risk factors for NASH, namely: • a. Type 2 diabetes or elevated fasting blood sugar • b. Abdominal obesity • c. Elevated lipid levels, especially elevated levels of serum triglycerides • d. Hypertension, or • e. Low levels of HDL cholesterol • 5. For serum transaminases, ALT concentration for all patients at the time of screening was >1 and <5 times upper limit of normal (ULN) of the central lab in the absence of another cause of liver disease. If a patient had lab records in the past 6 months, ALT concentrations were <20 U/L female and <30 U/L male. AST concentration for all patients at the time of screening was <5× ULN • 6. […] Platelet counts ≥120,000/mm^3 • 8. Female subjects were eligible for the study if they met the following criteria: • Are not pregnant or nursing • Women of child-bearing potential (defined as females who are not surgically sterile or who are not over the age of 52 and amenorrheic for at least 12 months) must utilize appropriate birth control throughout the study duration. Acceptable methods that may be used are abstinence, birth control pills (“The Pill”) or patch, diaphragm, IUD (coil), vaginal ring, condom, surgical sterilization or progestin implant or injection, or sexual activity limited to a sterile (e.g., vasectomized) male partner • 9. Male participants agreed to consistently and correctly use a condom in combination with one of the above methods of birth control from enrollment to 30 days after the last dose of study medication • 10. Participants were able to comply with dosing and able to complete the study schedule of assessments

[2] = system: NASH patients with stage 1-3 fibrosis; assay: Phase 1b study in NASH patients: safety; assay type: in vivo, human; details: 4 weeks oral
Description: A total of 63 patients completed the study with 21 patients per dose group (completion of MRI-PDFF measurement). 25HC3 S sodium was orally administered daily at 50 mg, 150 mg, or 600 mg (300 mg BID). […] Subjects provided written informed consent to participate in the study • 2. Males or females subjects 18 years or older, at the time of signing informed consent • 3. BMI 20-45 kg/m^2 • 4. […] Value of Fibroscan® ≥7 kPa • OR • b. MRE ≥2.75 kPa • *Clinical diagnosis of NASH was defined in this clinical trial as the existence of one or more of the following risk factors for NASH, namely: • a. Type 2 diabetes or elevated fasting blood sugar • b. Abdominal obesity • c. Elevated lipid levels, especially elevated levels of serum triglycerides • d. Hypertension, or • e. Low levels of HDL cholesterol • 5. For serum transaminases, ALT concentration for all patients at the time of screening was >1 and <5 times upper limit of normal (ULN) of the central lab in the absence of another cause of liver disease. If a patient had lab records in the past 6 months, ALT concentrations were <20 U/L female and <30 U/L male. AST concentration for all patients at the time of screening was <5× ULN • 6. […] Platelet counts ≥120,000/mm^3 • 8. […]

[3] = Phase 1b study in NASH patients: pharmacokinetics; assay type: in vivo, human; details: for CL/F: NASH patients, mean
Description: as §1
The pharmacokinetics of administered 25HC3 S was determined.

[4] = Single dose safety and pharmacokinetic study in subjects with NASH and control healthy subjects; assay type: in vivo, human
Description: The present Example was a randomized, dose ranging, single dose safety and pharmacokinetic study of 25HC3S administered to subjects with NASH and control healthy subjects. […] For each cohort, 10 subjects with NASH were enrolled which were further classified into cirrhotic and non-cirrhotic. Each subject received only one dose of study treatment. The second cohort was dosed after a review of safety and tolerability data from Cohort 1.

[5] = Metabolite profiling of plasma, urine and feces after intravenous dose in rats; assay type: in vivo, Sprague Dawley rats; details: intravenous 10 mg/kg, up to 1 hour postdose
Description: Nine male Sprague Dawley rats (Group 1) were designated for the pharmacokinetic phase, 3 male Sprague Dawley rats (Group 2) for the excretion mass balance phase, and 7 male Sprague Dawley rats (Group 3) and 9 male Long Evans rats (Group 4) for the tissue distribution phase. All animals received a single intravenous dose of [^14C]-25HC3S at 10 mg/kg and a target radioactivity of 225 μCi/kg. Blood samples were collected from all Group 1 animals at approximately 0.083, 0.25, 0.5, 1, 2, 4, 8, 12, 24, 48, and 72 hours post-dose. Urine and feces were collected from all Group 2 animals periodically through 168 hours post-dose. […] Following blood collection, animals were euthanized by CO2 inhalation and carcasses frozen in a dry ice/hexane bath for processing by quantitative whole body autoradiography. Whole blood, plasma, urine, feces, cage rinse, and cage wash were analyzed for total radioactivity by liquid scintillation counting.
Plasma pools were made from Group 1 rats at the 0.083, 0.25, 0.5, and 1-hour collection time points.
Urine pools were prepared for Group 2 at 0 to 6 and 6 to 12 hours postdose. The largest component present was attributed to the parent 25HC3 S representing about 78% to 93% of the radioactivity. […]

NASH patients = details: between 50 mg and 200 mg oral dose levels; cited from earlier work
[6] = 50 mg QD, 4 weeks oral, patients with ≥10% reduction in MRI-PDFF, Day 28 vs baseline
[7] = 50 mg QD, 4 weeks oral, patients with ≥10% reduction in MRI-PDFF, Day 28 vs baseline, listed as 25HC3 S
[8] = 300 mg BID, 4 weeks oral, patients with ≥10% reduction in MRI-PDFF, Day 28 vs baseline
[9] = 300 mg BID, 4 weeks oral, patients with ≥10% reduction in MRI-PDFF, Day 28 vs baseline, listed as 25HC3 S
[10] = all on a statin except one outlier (n = 19)
[11] = all patients on a statin (n = 20)

With `C[C@H](CCCC(C)(C)O)[C@H]1CC[C@H]2[C@@H]3CC=C4C[C@@H](OS(=O)(=O)O)CC[C@]4(C)[C@H]3CC[C@]12C` [25HC3S, 5-cholesten-3,25-diol, 3-sulfate] the “Non-HDL-C, median change” value ([1]; 50 mg QD, 4 weeks oral, all patients, Day 28 vs baseline) was −8%, the “APRI score, median change” value [1, 6] was −27%*** and the “AST, median change” value [1, 6] was −24%**. The “FIB-4 score, median change” value [1, 6] was −19%**, the “GGT, median change” value [1, 6] was −13%*** and the “APRI score, median change” value [1, 7] was −27%. For the same compound, the “AST, median change” value [1, 7] was −24%, the “FIB-4 score, median change” value [1, 7] was −19% and the “GGT, median change” value [1, 7] was −13%. The “GGT, median change” value ([1]; 150 mg QD, 4 weeks oral, all patients, Day 28 vs baseline) was −1%, the “APRI score, median change” value [1, 8] was −36%*** and the “AST, median change” value [1, 8] was −39%***. The “FIB-4 score, median change” value [1, 8] was −21%***, the “APRI score, median change” value [1, 9] was −36% and the “AST, median change” value [1, 9] was −39%. The “FIB-4 score, median change” value [1, 9] was −21%, the “Mean Non-HDL to Baseline” value [1, 10] was −11% and the “Mean TG to Baseline” value [1, 10] was −10%. For the same compound, the “Median Non-HDL to Baseline” value [1, 10] was −10%, the “Median TG to Baseline” value [1, 10] was −9% and the “Mean Non-HDL to Baseline” value [1, 11] was −9%. For the same compound, the “Mean TG to Baseline” value [1, 11] was −2%, the “Median Non-HDL to Baseline” value [1, 11] was −9% and the “Median TG to Baseline” value [1, 11] was −6%. For the same compound, the “enzyme levels (e.g., ALT, AST, GGT)” value ([1]; high dose (300 mg BID)) was “improved enzyme levels”, the “patients who showed ≥10% liver fat reduction from baseline as measured by MRI-PDFF” value ([1]; in each dose group (50 mg, 150 mg, 600 mg daily), after 4-week dosing) was 43% and the “serum triglycerides, median reduction from baseline” value ([1]; patients with elevated baseline triglycerides (≥200 mg/dL; n=16) across all dose groups, day 28) was −24%. For the same compound, the “reduction in serum triglycerides” value ([1]; patients with elevated baseline triglycerides (≥200 mg/dL; n=16) across all dose groups, day 28 from baseline) was 24%, the tolerability ([2]; all three doses (50 mg, 150 mg, 600 mg daily)) was “well tolerated” and the “drug related serious adverse events” value ([2]; all three doses) was “no drug related serious adverse events observed”. For the same compound, the CL/F ([3]; 50 mg QD oral) was 150.6 L/h, the “dose dependence of PK parameters” value ([3]; 50 mg, 150 mg, 600 mg daily) was “dose dependent” and the CL/F ([3]; 150 mg QD oral) was 176.6 L/h. The CL/F ([3]; 300 mg BID oral) was 166.2 L/h, the “PK parameters after repeat dosing versus single dose” value ([3]; 4-week daily oral dosing) was “comparable to those after a single dose” and the “difference between healthy and NASH subjects in pharmacokinetics (Cmax and AUC)” value ([4]; 50 mg and 200 mg) was “no clear difference”. The “increase of AUC0-last, AUCinf and Cmax with increasing dose” value ([4]; 50 mg to 200 mg) was “less than proportional”, the “geometric mean AUC0-12 and AUC0-last, NASH versus healthy subjects” value ([4]; Cohort 1 (50 mg)) was “similar” and the “AUC0-inf, higher in NASH subjects than healthy” value ([4]; Cohort 2 (200 mg)) was “approximately 20%”. The “increase of geometric mean Cmax in NASH subjects over healthy subjects” value ([4]; Cohorts 1 and 2) was 18-24%, the “increase in both Cmax and AUC parameters for a four-fold increase in dose” value ([4]; NASH subjects, 50 mg to 200 mg) was “three-fold” and the “increase in mean Cmax for a four-fold increase in dose” value ([4]; healthy subjects, 50 mg to 200 mg) was “three-fold”. For the same compound, the “Mean % AUCexp” value ([4]; human, in vivo) was “low”, the “share of the exposure (AUC) to related radioactivity in plasma” value [5] was “approximately 54%” and the “dose-dependent changes of biological responses” value (NASH patients) was “no dose-dependent changes of biological responses”.
